A word on the IC50: it is the concentration at which inhibition is half-maximal.

Holding throughout (format): biochemical
One test addresses T1, Recombinant human MAO-B (Homo sapiens, UniProt P27338).
T1 construct: purchased Sigma M7441
T1 sequence (P27338 1-520): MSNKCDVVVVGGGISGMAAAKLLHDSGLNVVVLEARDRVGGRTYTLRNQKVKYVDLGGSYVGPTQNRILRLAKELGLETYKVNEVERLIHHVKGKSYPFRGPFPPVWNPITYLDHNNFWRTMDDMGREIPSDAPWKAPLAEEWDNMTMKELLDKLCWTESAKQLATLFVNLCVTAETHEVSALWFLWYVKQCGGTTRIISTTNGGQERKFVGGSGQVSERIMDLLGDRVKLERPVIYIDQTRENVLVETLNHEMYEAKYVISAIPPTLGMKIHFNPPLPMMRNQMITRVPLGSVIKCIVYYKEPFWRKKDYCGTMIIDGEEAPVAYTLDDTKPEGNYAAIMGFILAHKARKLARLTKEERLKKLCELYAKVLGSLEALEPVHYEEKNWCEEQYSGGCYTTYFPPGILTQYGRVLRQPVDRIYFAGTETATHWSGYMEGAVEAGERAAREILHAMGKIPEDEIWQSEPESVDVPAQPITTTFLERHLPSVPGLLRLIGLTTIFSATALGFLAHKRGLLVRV
Description: Inhibitory activity on MAO-B. As for the experimental part: (§1) Recombinant human MAO-A and MAO-B protein was purchased from Sigma (M7316, M7441). Other reagents are the same as Biological Test Example 1. The final concentration of test compound in 10 μL reaction system was 100 μM to 5 nM when MAO-A and MAO-B were detected. The final concentrations of MAO-A and MAO-B protein in 10 μL reaction system were 70 nM and 300 nM, respectively, while other reaction conditions were the same as those in Biological Test Example 1. Data analysis and IC50 calculation method were the same as those in Biological Test Example 1.

In the next test the target is T2, Recombinant human MAO-A (Homo sapiens, UniProt P21397).
T2 construct: purchased Sigma M7316
T2 sequence (P21397 1-527): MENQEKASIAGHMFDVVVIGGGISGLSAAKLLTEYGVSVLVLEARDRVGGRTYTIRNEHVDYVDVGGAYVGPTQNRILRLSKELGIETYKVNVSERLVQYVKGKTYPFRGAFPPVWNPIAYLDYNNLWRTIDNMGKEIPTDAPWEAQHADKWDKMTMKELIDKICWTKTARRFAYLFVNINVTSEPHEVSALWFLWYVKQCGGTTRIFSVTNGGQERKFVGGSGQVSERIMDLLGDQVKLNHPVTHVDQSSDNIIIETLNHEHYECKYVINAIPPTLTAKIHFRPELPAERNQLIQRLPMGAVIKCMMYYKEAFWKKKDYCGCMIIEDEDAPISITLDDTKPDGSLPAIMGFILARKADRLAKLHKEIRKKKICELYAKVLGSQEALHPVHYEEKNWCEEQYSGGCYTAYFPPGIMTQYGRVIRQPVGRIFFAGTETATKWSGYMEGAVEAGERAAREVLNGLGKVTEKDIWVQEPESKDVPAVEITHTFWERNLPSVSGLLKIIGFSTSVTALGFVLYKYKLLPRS
Description: Inhibitory activity on MAO-A. As for the experimental part:
as §1

The target in test [1] is T3, Recombinant human SSAO protein (Homo sapiens, UniProt Q16853).
T3 construct: Eli Lilly (provided, not a catalogue product)
T3 sequence (Q16853 1-763): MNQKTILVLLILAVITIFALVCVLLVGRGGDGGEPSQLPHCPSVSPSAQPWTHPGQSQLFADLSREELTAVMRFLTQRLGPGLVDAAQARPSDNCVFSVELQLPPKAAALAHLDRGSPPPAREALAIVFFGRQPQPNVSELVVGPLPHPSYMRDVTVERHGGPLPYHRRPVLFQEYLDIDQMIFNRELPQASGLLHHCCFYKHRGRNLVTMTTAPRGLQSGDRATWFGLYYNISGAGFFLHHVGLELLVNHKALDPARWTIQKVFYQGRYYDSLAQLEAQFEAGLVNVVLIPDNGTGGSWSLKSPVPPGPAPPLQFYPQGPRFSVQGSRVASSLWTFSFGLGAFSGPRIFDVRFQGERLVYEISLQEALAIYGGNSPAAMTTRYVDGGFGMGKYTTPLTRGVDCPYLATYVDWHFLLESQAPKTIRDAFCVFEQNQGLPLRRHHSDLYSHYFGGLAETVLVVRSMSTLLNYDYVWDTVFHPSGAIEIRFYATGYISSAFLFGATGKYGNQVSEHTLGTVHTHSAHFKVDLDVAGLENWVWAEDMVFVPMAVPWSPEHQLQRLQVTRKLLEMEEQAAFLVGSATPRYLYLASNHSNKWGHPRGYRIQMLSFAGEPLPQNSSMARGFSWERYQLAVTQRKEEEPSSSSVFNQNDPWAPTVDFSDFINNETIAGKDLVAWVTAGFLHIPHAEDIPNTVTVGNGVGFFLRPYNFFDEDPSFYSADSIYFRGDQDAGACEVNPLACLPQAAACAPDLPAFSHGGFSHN
Description: In vitro inhibitory activity on SSAO/VAP-1 (MAO-Glo assay), human. As for the experimental part: This assay was used to evaluate the in vitro inhibitory activity of the compounds on SSAO/VAP-1 of different species. Recombinant human SSAO protein, mouse SSAO protein or rat SSAO protein (provided by Eli Lilly) were used. The enzyme activity detection kit, MAO-Glo Assay kit (V1402) was purchased from Promega. Enzyme reaction buffer (50 mM HEPES, 120 mM NaCl, 5 mM KCl, 2 mM CaCl2, 1.4 mM MgCl2, 0.001% Tween-20, pH7.4) was prepared. The test compound was dissolved in DMSO and diluted by 3-fold concentration in gradient. The final concentration of test compound in a 10 μL reaction system was 1 μM to 0.05 nM when SSAO was detected. The content of DMSO in the detection reaction was 1%. After the solution of test compound in DMSO was diluted in the enzyme reaction buffer at a volume ratio of 1:25, 2.5 μL of which was added to each well of detection plate, two replicates for each concentration. 5 μL of SSAO protein diluted in the enzyme reaction buffer was added to each well, the final concentration of which was 10 nM to 80 nM in 10 μL reaction system. The mixture was incubated at room temperature for 10 minutes. 2.5 μL of the reaction substrate diluted in the enzyme reaction buffer was added to each well, the final concentration of which was 10 μM in 10 μL reaction system. After the mixture was reacted at room temperature for 120 minutes, 10 μL of detection reagent was added to each well. The reaction solution was incubated for 20 minutes at room temperature, and the plate was read with Synergy Neo 2 for detection. The value was converted into inhibition rate by the following formula: Inhibition rate=(Signalpositive−Signaltest)/(Signalpositive−Signalnegative)×100%
Signalpositive was positive control without test compound. Signalnegative was negative control without test compound and SSAO enzyme, and Signaltest was detection value of each compound at different concentrations. IC50 value was calculated by using 4 parameter curve fitting.

Take `NC/C(=C\F)COc1cnc(N2CC3(COC3)C2)nc1` [Example 11]: the results for the IC50 (at Recombinant human MAO-B; at Recombinant human MAO-A; in test [1]) were > 20 µM, 2 to 100 µM and > 0.05 µM, respectively.

The values above are taken from patent US12258336B2, “Preparation of seimicarbazide-sensitive amine oxidase inhibitor and use thereof” (SHANGHAI ENNOVABIO PHARMACEUTICALS CO., LTD., priority 2018, dated 2025).
